# From ChEMBL document CHEMBL5226385, “The Antiangiogenic and Antitumor Effects of Scoparasin B in Non-Small-Cell Lung Cancer” (J Nat Prod, 2023)
# The source made the active and inactive calls. The calls are words filed in the database; no cut-off is given here.
# Columns and labels:
# HUVEC [1] = assay: Cytotoxicity against human HUVEC cells assessed as reduction in cell proliferation upto 25 nM measured after 48 hrs by CCK8 assay; type: toxicity, cell-based; conditions: 0.025 µM
# HUVEC [2] = assay: Antiangiogenic activity against human HUVEC cells assessed as inhibition of cell migration measured after 8 hrs by scratch wound healing assay; type: functional, cell-based; conditions: dose 5-15 nM
# HMEC-1 [3] = assay: Antiangiogenic activity against human HMEC-1 cells assessed as inhibition of cell migration measured after 24 hrs by Transwell migration assay; type: functional, cell-based; conditions: dose 5-15 nM
# HUVEC [4] = assay: Antiangiogenic activity against human HUVEC cells assessed as inhibition of cell invasion measured after 24 hrs by Transwell invasion assay; type: functional, cell-based; conditions: dose 5-15 nM
# HMEC-1 [5] = assay: Antiangiogenic activity against human HMEC-1 cells assessed as inhibition of cell invasion measured after 24 hrs by Transwell invasion assay; type: functional, cell-based; conditions: dose 5-15 nM
# HMEC-1 [6] = assay: Antiangiogenic activity against human HMEC-1 cells assessed as inhibition of capillary tube-like structure formation at 15 nM incubated for 6 hrs by Matrigel based analysis; type: functional; set-up: scale not given: the % may be the effect or the level left
# Rattus norvegicus = species: Rattus norvegicus; assay: Ex vivo antiangiogenic activity against Sprague-Dawley rat aorta rings assessed as reduction in microvessel sprouting from aortic rings by measuring reduction in segment formation measured after 6 days by microscopic analysis; type: functional; conditions: dose 5-20 nM, time 6.0 day
# Gallus gallus = species: Gallus gallus; assay: Ex vivo antiangiogenesis activity in chicken embryo chorioallantonic membrane assessed as reduction in microvessel density at 5 to 20 nM measured after 48 hrs by stereomicroscopic analysis; type: functional, organism-based; conditions: Chorioallantoic membrane, dose 5-20 nM
# [7] = molecular target: Vascular endothelial growth factor receptor 2 (Homo sapiens) (UniProt P35968); assay: Inhibition of VEGF-A-mediated VEGFR2 signaling pathway in human HUVEC cells assessed as reduction in VEGFR2 phosphorylation at Tyr1175 residue at 5 to 15 nM incubated for 36 hrs by western blot analysis; type: cell-based; conditions: dose 5-15 nM
# Vascular endothelial growth factor receptor 2 (Homo sapiens), sequence (P35968 whole entry): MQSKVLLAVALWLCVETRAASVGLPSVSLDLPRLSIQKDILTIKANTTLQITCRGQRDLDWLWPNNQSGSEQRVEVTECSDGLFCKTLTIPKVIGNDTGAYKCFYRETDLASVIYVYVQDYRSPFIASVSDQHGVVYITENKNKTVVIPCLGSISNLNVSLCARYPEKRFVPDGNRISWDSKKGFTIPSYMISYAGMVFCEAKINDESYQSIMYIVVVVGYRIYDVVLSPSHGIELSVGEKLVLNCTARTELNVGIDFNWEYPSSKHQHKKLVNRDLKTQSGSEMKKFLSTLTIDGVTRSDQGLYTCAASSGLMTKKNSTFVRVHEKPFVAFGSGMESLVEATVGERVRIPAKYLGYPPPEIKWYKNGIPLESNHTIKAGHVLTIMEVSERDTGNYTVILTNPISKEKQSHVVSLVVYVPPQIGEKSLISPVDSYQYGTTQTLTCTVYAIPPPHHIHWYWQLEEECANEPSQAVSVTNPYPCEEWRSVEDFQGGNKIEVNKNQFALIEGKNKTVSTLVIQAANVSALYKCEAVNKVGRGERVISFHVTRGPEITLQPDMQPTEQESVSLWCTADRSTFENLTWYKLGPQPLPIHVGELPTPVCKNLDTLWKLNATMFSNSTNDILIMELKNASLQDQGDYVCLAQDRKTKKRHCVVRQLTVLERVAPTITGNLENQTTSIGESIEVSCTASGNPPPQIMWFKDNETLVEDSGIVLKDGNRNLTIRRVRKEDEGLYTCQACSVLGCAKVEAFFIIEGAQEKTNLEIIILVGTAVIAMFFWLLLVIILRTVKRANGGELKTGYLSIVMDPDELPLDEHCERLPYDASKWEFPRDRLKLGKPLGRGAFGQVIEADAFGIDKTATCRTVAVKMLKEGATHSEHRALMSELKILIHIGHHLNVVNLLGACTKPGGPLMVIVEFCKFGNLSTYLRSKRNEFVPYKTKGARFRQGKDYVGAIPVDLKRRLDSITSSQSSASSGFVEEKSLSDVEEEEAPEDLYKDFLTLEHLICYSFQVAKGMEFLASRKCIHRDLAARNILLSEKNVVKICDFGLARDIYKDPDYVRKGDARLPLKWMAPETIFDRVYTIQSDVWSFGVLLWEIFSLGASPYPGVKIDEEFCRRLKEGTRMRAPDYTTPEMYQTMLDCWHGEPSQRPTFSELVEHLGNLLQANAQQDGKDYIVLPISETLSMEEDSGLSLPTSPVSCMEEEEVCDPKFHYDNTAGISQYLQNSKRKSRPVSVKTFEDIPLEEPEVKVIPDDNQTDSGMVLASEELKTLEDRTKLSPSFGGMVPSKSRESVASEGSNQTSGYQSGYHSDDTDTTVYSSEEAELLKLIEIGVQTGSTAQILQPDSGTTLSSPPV
# HMEC-1 [8] = assay: Downregulation of VEGFR2 protein expression in human HMEC-1 cells at 5 to 15 nM incubated for 36 hrs by western blot analysis; type: functional, cell-based; conditions: dose 5-15 nM
# HUVEC [9] = assay: Inhibition of VEGF-A secretion in human HUVEC cells incubated for 36 hrs by ELISA; type: functional, cell-based; conditions: dose 5-15 nM
# [10] = molecular target: Vascular endothelial growth factor receptor 2 (Homo sapiens) (UniProt P35968); assay: Inhibition of VEGF-A-mediated VEGFR2 signaling pathway in human HUVEC cells assessed as reduction in Akt phosphorylation at Thr308 residue at 5 to 15 nM incubated for 36 hrs by western blot analysis; type: cell-based; conditions: dose 5-15 nM
# [11] = molecular target: Vascular endothelial growth factor receptor 2 (Homo sapiens) (UniProt P35968); assay: Inhibition of VEGF-A-mediated VEGFR2 signaling pathway in human HMEC-1 cells assessed as reduction in FAK phosphorylation at Tyr397 residue at 5 to 15 nM incubated for 36 hrs by western blot analysis; type: cell-based; conditions: dose 5-15 nM
# HBVP [12] = assay: Inhibition of cell adhesion in human HBVP cells assessed as reduction in cell adhesion number at 5 to 15 nM pretreated with compound for 24 hrs followed by culturing for 1 hr by crystal violet staining based inverted microscopic analysis; type: functional; conditions: dose 5-15 nM, time 25.0 hrs
# HBVP [13] = assay: Inhibition of PDGFR-beta protein expression in human HBVP cells at 5 to 15 nM incubated for 24 hrs by western blot analysis; type: functional, cell-based; conditions: dose 5-15 nM
# HBVP [14] = assay: Inhibition of PDGF-BB mRNA expression in human HBVP cells at 5 to 15 nM incubated for 24 hrs by qPCR analysis; type: functional, cell-based; conditions: dose 5-15 nM
# NCI-H1299 [15] = assay: Cytotoxicity against human NCI-H1299 cells assessed as reduction in cell viability at 25 nM incubated for 48 hrs by CCK8 assay; type: toxicity, cell-based; conditions: nci-h1299, 48 h, 0.025 µM
# NCI-H1299 [16] = assay: Downregulation of Vimentin protein expression in human NCI-H1299 cells at 5 to 15 nM incubated for 24 hrs by western blot analysis; type: functional, cell-based; conditions: dose 5-15 nM
# NCI-H1299 [17] = assay: Downregulation of Snail protein expression in human NCI-H1299 cells at 5 to 15 nM incubated for 24 hrs by western blot analysis; type: functional, cell-based; conditions: dose 5-15 nM
# NCI-H1299 [18] = assay: Downregulation of MMP9 protein expression in human NCI-H1299 cells at 5 to 15 nM incubated for 24 hrs by western blot analysis; type: functional, cell-based; conditions: dose 5-15 nM
# NCI-H1299 [19] = assay: Downregulation of VE-Cadherin mRNA expression in human NCI-H1299 cells at 5 to 15 nM incubated for 24 hrs by qPCR analysis; type: functional, cell-based; conditions: dose 5-15 nM
# NCI-H1299 [20] = assay: Downregulation of Vimentin mRNA expression in human NCI-H1299 cells at 5 to 15 nM incubated for 24 hrs by qPCR analysis; type: functional, cell-based; conditions: dose 5-15 nM
# NCI-H1299 [21] = assay: Upregulation of E-Cadherin mRNA expression in human NCI-H1299 cells at 5 to 15 nM incubated for 24 hrs by qPCR analysis; type: functional, cell-based; conditions: dose 5-15 nM
# NCI-H1299 [22] = assay: Inhibition of VEGF-A secretion in human NCI-H1299 cells at 5 to 15 nM incubated for 24 hrs by ELISA; type: functional, cell-based; conditions: dose 5-15 nM
# [23] = Toxicity against BALB/c nude mouse xenografted with human NCI-H1299 cells assessed as change in body weight at 0.75 to 1.5 mg/kg, ip administered every other day for 20 days; type: organism-based; conditions: in vivo, 480 h, dose 0.75-1.5 mg/kg, time 20 day
# [24] = Toxicity against BALB/c nude mouse xenografted with human NCI-H1299 cells assessed as morphological changes in heart at 0.75 to 1.5 mg/kg, ip administered every other day for 20 days by Hematoxylin and eosin staining based inverted microscopic analysis; type: organism-based; conditions: in vivo, 480 h, dose 0.75-1.5 mg/kg, time 20 day
# [25] = Toxicity against BALB/c nude mouse xenografted with human NCI-H1299 cells assessed as morphological changes in lungs at 0.75 to 1.5 mg/kg, ip administered every other day for 20 days by Hematoxylin and eosin staining based inverted microscopic analysis; type: organism-based; conditions: in vivo, 480 h, dose 0.75-1.5 mg/kg, time 20 day
# NCI-H1299 [26] = assay: Antitumor activity against human NCI-H1299 cells xenografted in BALB/c nude mouse assessed as increase in tumor necrotic areas at 0.75 to 1.5 mg/kg, ip administered every other day for 20 days by Hematoxylin and eosin staining based inverted microscopic analysis; type: functional, organism-based; conditions: dose 0.75-1.5 mg/kg, time 20.0 day
# Mus musculus [27] = assay: Inhibition of tumor angiogenesis in BALB/c nude mouse xenografted with human NCI-H1299 cells assessed as reduction in microvessel density of the tumor at 0.75 to 1.5 mg/kg, ip administered every other day for 20 days by CD31 staining based immunohistochemical analysis; type: functional, organism-based; conditions: dose 0.75-1.5 mg/kg, time 20.0 day
# Mus musculus [28] = assay: Inhibition of tumor angiogenesis in BALB/c nude mouse xenografted with human NCI-H1299 cells assessed as reduction in […] cells in tumor at 1.5 mg/kg, ip administered every other day for 20 days by immunohistochemical analysis; type: functional, organism-based; conditions: time 20.0 day
# Mus musculus [29] = assay: Downregulation of VEGF-A protein expression in tumor of BALB/c nude mouse xenografted with human NCI-H1299 cells at 0.75 to 1.5 mg/kg, ip administered every other day for 20 days by immunohistochemical analysis; type: functional, organism-based; conditions: dose 0.75-1.5 mg/kg, time 20.0 day
# Mus musculus [30] = assay: Inhibition of vasculogenic-mimicry in BALB/c nude mouse xenografted with human NCI-H1299 cells assessed as reduction in pericyte coverage around CD31-positive endothelial blood vessels at 0.75 to 1.5 mg/kg, ip administered every other day for […] by immunofluorescence analysis; type: functional, organism-based; conditions: dose 0.75-1.5 mg/kg
# NCI-H460 = assay: Cytotoxicity against human NCI-H460 cells assessed as reduction in cell viability measured after 72 hrs by MTT assay; type: functional, cell-based; conditions: NCI-H460, 72 h
smiles,measurement,setting,value
COc1ccc(C[C@@H]2NC(=O)[C@@]34OC(=O)O/C=C/[C@@](C)(O)C(=O)[C@@H](C)C/C=C/[C@H]3[C@H](O)[C@](C)(O)[C@@H](C)[C@@H]24)cc1 [SCOPARASIN B],Activity,HUVEC [1],Non-Toxic
same,Activity,HUVEC [2],Dose-Dependent Effect
same,Activity,HMEC-1 [3],Dose-Dependent Effect
same,Activity,HUVEC [4],Dose-Dependent Effect
same,Activity,HMEC-1 [5],Dose-Dependent Effect
same,Activity,HMEC-1 [6],100%
same,Activity,Rattus norvegicus,Dose-Dependent Effect
same,Activity,Gallus gallus,Active
same,inhibition,[7],Active
same,inhibition,HMEC-1 [8],inactive
same,inhibition,HUVEC [9],Dose-Dependent Effect
same,inhibition,[10],Active
same,inhibition,[11],Active
same,inhibition,HBVP [12],Active
same,inhibition,HBVP [13],inactive
same,inhibition,HBVP [14],Active
same,Activity,NCI-H1299 [15],Non-Toxic
same,inhibition,NCI-H1299 [16],Active
same,inhibition,NCI-H1299 [17],Active
same,inhibition,NCI-H1299 [18],Active
same,inhibition,NCI-H1299 [19],Active
same,inhibition,NCI-H1299 [20],Active
same,Activity,NCI-H1299 [21],Active
same,inhibition,NCI-H1299 [22],Active
same,Activity,[23],Non-Toxic
same,Activity,[24],Non-Toxic
same,Activity,[25],Non-Toxic
same,Activity,NCI-H1299 [26],Active
same,inhibition,Mus musculus [27],Active
same,inhibition,Mus musculus [28],Active
same,inhibition,Mus musculus [29],Active
same,inhibition,Mus musculus [30],Active
same,IC50,NCI-H460,3.9 µM
